In BindingDB's records for doi:10.1074/jbc.M113.514646 (Emory University, 2014) one finds Ki and Kd data, which are given here for five compounds.

What all share (test): Ligand Binding Assay
Holding throughout (settings): pH 8.2; 30 °C

Assay [1] concerns the target Fatty acid-binding protein 5 (Homo sapiens, UniProt Q01469). From the text: (§1) In brief, both wild-type and mutant hFABP5 were expressed and purified to homogeneity as described above and dialyzed in PBS (pH 8.2). […] Blank measurements obtained from protein-only samples were subtracted at each protein concentration tested to obtain the final values. […] Blanks consisting of 1,8-ANS and fatty acid in the absence of protein were subtracted at each ligand concentration tested. The resulting fluorescence values were used to calculate a Ki value for the fatty acid of interest. Data were collected at 30 °C on a BioTek Synergy plate reader using an excitation filter of 380/20nm and an emission filter of 460/40nmand processed inGraphPad Prism 5.

In assay [2] the target is Fatty acid-binding protein 5 [K24A,R33A,K34A] (Homo sapiens, UniProt Q01469, K24A/K34A/R33A).
Source text: as §1

Assay [3] concerns the target Fatty acid-binding protein 5 [M35A,L60A] (Homo sapiens, UniProt Q01469, L60A/M35A).
Source text: as §1

Chain of Fatty acid-binding protein 5 [M35A,L60A] (Q01469 2-135 M35A/L60A limits assumed): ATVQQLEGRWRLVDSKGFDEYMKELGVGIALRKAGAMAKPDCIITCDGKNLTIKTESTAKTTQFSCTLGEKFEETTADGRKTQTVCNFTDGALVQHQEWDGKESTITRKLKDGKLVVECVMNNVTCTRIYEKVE
Chain of Fatty acid-binding protein 5 [K24A,R33A,K34A] (Q01469 2-135 K24A/R33A/K34A limits assumed): as the sequence (Q01469 2-135 M35A/L60A limits assumed) above, with K23A, R32A, K33A, A34M, A59L counted along it
Chain of Fatty acid-binding protein 5 (Q01469 whole entry): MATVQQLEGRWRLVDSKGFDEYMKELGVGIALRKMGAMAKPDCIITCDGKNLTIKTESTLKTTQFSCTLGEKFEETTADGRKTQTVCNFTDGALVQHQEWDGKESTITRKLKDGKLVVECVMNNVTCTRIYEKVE

On to `CCCCC/C=C\C/C=C\CCCCCCCC(=O)O`, for which the results for the Ki in assay [1], in assay [2] and in assay [3] were 1.26 µM, 2.17 µM and 3.47 µM, respectively.
In the case of `CCCCCC/C=C\CCCCCCCC(=O)O` [(9Z)-hexadec-9-enoic acid], the Ki (in general, a measure of affinity in units of concentration, obtained from inhibition or displacement) in assay [1] stood at 1.36 µM; in assay [2], 1.64 µM; in assay [3], 1.78 µM.
Take `O=S(=O)(O)c1cccc2cccc(Nc3ccccc3)c12` [ANS]: the Kd – broadly, the concentration at which binding is half-saturated – in assay [1] was determined as 6.57 µM; in assay [2] it was 12.6 µM; in assay [3] it was 6.1 µM.
For the compound `CCCCCCCCN[C@H]1C=C(CO)[C@@H](O)[C@H](O)[C@H]1O` [NOEV], the Ki in assay [1] amounted to 1.1 µM; in assay [2], 1.24 µM; in assay [3], 0.7 µM.
On to `CCCCC/C=C\C/C=C\C/C=C\C/C=C\CCCC(=O)O` [[1-14C]Arachidonic acid], for which the Ki in assay [1] stood at 2.59 µM; in assay [2], 9.37 µM; in assay [3] it was 5.01 µM.
